According to patent publication US5463107A, “Triterpene derivatives and endothelin-receptor antagonists containing the same” (Shionogi & Co., Ltd., priority 1993, dated 1995):
Like-named read-outs stand apart in the source and are kept apart here.

How the values were obtained:
[1] = biological target: T1, endothelin receptor (smooth muscle A7r5 cells derived from rat aorta) (Rattus norvegicus, UniProt P26684); assay: Inhibitory effect on the binding of 125I-endothelin-1 to its receptor (rat aorta smooth muscle A7r5 cells); conditions: 25 pM 125I-endothelin-1, 37° C., 1 hr, read-out: IC50 binding: 50% inhibition of the specific binding of 125I-endothelin-1 to its receptor
T1 construct: Smooth muscle A7r5 cells derived from rat aorta; endogenous in cells; host or cells: A7r5 (rat aortic smooth muscle)
T1 sequence (P26684 21-426): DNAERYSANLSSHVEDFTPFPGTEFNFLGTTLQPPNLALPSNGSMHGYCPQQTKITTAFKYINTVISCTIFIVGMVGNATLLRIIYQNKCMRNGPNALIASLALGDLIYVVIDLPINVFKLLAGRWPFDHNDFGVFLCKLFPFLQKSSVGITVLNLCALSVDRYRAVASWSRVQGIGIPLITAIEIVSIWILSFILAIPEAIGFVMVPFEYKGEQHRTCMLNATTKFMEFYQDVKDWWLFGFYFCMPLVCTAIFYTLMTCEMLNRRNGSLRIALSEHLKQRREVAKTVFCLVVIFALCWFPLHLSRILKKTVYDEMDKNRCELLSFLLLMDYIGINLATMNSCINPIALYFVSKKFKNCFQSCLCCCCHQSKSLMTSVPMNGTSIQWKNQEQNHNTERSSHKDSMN
Description: Inhibitory Effect on the Binding of ^125 I-Endothelin-1 to its Receptor
Smooth muscle A7r5 cells derived from rat aorta were incubated with 25 pM ^125 I-endothelin-1 at 37° C. for 1 hr in the presence or absence of a compound (I) of the present invention. After completion of the reaction, ^125 I-endothelin-1 bound to membrane fraction was separated by filtrating through glass fiber filters and the radioactivity was determined with a gamma-counter. The specific binding was calculated by subtracting the nonspecific binding which was determined in the presence of 10^-7 M non-radioactive endothelin-1 from the total binding.

[2] = system: endothelin-1-induced increase in cytosolic calcium ion concentration, rat aortic smooth muscle A7r5 cells; assay: Inhibition of the endothelin-1-induced increase in cytosolic calcium ion concentration in A7r5 cells; format: cell-based; conditions: fura-2, compound 1 min before 10^-8 M endothelin-1, read-out: IC50 (Ca^2+): inhibition of endothelin-1-induced increase in cytosolic calcium concentration
Description: Inhibition of the Endothelin-1-induced Increase in Cytosolic Calcium Ion Concentration
To a cuvette was put a suspension of rat aortic smooth muscle A7r5 cells (Dainippon Pharmaceutical Co., Ltd.) on which 2 μM fura-2 (Dojin) has been loaded. The change in fluorescence intensity was determined with a calcium analyzer (CAF100, Nippon Bunkou Co.). In the determination, the excitation was performed at 340 nm and 380 nm and the recording at 510 nm. The cytosolic calcium concentration was calculated according to the method of Grynkiewicz et al., J. Biol. Chem., 260., pp. 3440-3450, 1985.
The experiment was carried out by adding a compound (I) of the present invention to the cell suspension in cuvette, incubating for 1 min, adding 10^-8 M endothelin-1, and measuring the change in fluorescence intensity.

[3] = biological target: T2, endothelin-1-induced contraction, isolated rat thoracic aorta (Rattus norvegicus, UniProt P26684); assay: Inhibition of endothelin-1-induced contraction in isolated rat thoracic aorta; conditions: 10^-8, 3×10^-8, 10^-7 M, 10 min, 37° C.
T2 construct: specimens isolated from rat thoracic aorta; from tissue; host or cells: rat thoracic aorta, transverse strips
T2 sequence (P26684 21-426): T1 sequence (P26684 21-426)
Description: Inhibition of Endothelin-1-induced Contradiction in Isolated Rat Thoracic Aorta
Transverse Stip specimens isolated from rat thoracic aorta were suspended in modified Locke-Ringer solution at 37° C. while aerating with mixed gas (95% O2 +5% CO2), and the isometric tension was recorded. Four specimens derived from each rat were used in the test. Thus, three specimens were treated with compound 1c (disodium salt; prepared in Example 1 or 3) of different concentration (10^-8 M, 3×10^-8 M, and 10^-7 M) for 10 min and the rest was untreated before the measurement of isometric tension.

[4] = system: endothelin-1-induced hypertension, pithed rat; assay: Inhibition of endothelin-1-induced hypertension in pithed rat; format: in vivo; conditions: intravenous, dose between 0.01 and 1 mg/kg
Description: Inhibition of Endothelin-1-induced Hypertension in Pithed Rat
Under ether anesthesia, a stainless-steal rod (diameter: 2 mm) was inserted from right orbital to spinal end of a rat. The resultant pithed rat was placed under artificial respiration and the change in blood pressure was recorded. Drugs (endothelin-1 and compound 1c prepared in Example 1 or 3) were administered intravenously.

CC1(C)CC[C@]2(C(=O)O)CC[C@]3(COC(=O)/C=C/c4cc(O)ccc4NC(=O)/C=C/C(=O)O)C(=CCC4[C@@]5(C)CCC(=O)C(C)(C)C5CC[C@]43C)[C@@H]2C1 (single isomer, unassigned) [Compound 1c]
IC50 [1]: 0.7 nM
IC50 [2]: 2.6 nM
shift of endothelin-1 concentration-contraction curve [3]: shifts the concentration-contradiction curve to right in a concentration-dependent manner
Kb ([3]; read-out: pA2 value, endothelin-1 concentration-contraction curve (converted)): 1.58 nM
decrease of blood pressure [4]: decreased the blood pressure in a dose-dependent manner

CC1(C)CC[C@]2(C(=O)O)CC[C@]3(COC(=O)/C=C/c4cc(O)ccc4NC(=O)/C=C\C(=O)O)C(=CCC4[C@@]5(C)CCC(=O)C(C)(C)C5CC[C@]43C)[C@@H]2C1 (stereo partly drawn) [Compound 1d]
IC50 [1]: 3.4 nM
IC50 ([2]; Rattus norvegicus): 3 nM

CC1(C)CC[C@]2(C(=O)O)CC[C@]3(COC(=O)/C=C/c4cc(O)ccc4NCC(=O)O)C(=CCC4[C@@]5(C)CCC(=O)C(C)(C)C5CC[C@]43C)[C@@H]2C1 (stereo partly drawn) [Compound 1n]
IC50 [1]: 3 nM
IC50 ([2]; Rattus norvegicus): 3 nM

CC1(C)CC[C@]2(C(=O)O)CC[C@]3(COC(=O)/C=C/c4cc(O)ccc4NC(=O)C(=O)O)C(=CCC4[C@@]5(C)CCC(=O)C(C)(C)C5CC[C@]43C)[C@@H]2C1 (stereo partly drawn) [Compound 1g]
IC50 [1]: 1.8 nM
IC50 ([2]; Rattus norvegicus): 2.5 nM

CC1(C)CC[C@]2(C(=O)O)CC[C@]3(COC(=O)/C=C/c4cc(O)ccc4NC(=O)CC(=O)O)C(=CCC4[C@@]5(C)CCC(=O)C(C)(C)C5CC[C@]43C)[C@@H]2C1 (stereo partly drawn) [Compound 1h]
IC50 [1]: 9 nM
IC50 ([2]; Rattus norvegicus): 5.6 nM

CC1(C)CC[C@]2(C(=O)O)CC[C@]3(COC(=O)/C=C/c4ccc(O)c(O)c4)C(=CCC4[C@@]5(C)CCC(=O)C(C)(C)C5CC[C@]43C)[C@@H]2C1 (stereo partly drawn) [Compound 50-235, reference compound]
IC50 [1]: 76 nM
IC50 ([2]; Rattus norvegicus): 10 nM

CC1(C)CC[C@]2(C(=O)O)CC[C@]3(COC(=O)/C=C/c4cc(O)ccc4N)C(=CCC4[C@@]5(C)CCC(=O)C(C)(C)C5CC[C@]43C)[C@@H]2C1 (stereo partly drawn) [Compound 1a]
IC50 [1]: 24 nM
IC50 ([2]; Rattus norvegicus): 4.5 nM

CC1(C)CC[C@]2(C(=O)O)CC[C@]3(COC(=O)/C=C/c4cc(O)ccc4NC(=O)/C=C/C(=O)O)C(=CCC4[C@@]5(C)CCC(=O)C(C)(C)C5CC[C@]43C)[C@@H]2C1 (single isomer, unassigned) [Compound 1b]
IC50 [1]: 0.5 nM
IC50 ([2]; Rattus norvegicus): 2.6 nM

CC1(C)CC[C@]2(C(=O)O)CC[C@]3(COC(=O)/C=C/c4cc(O)ccc4NC(=O)CCCC(=O)O)C(=CCC4[C@@]5(C)CCC(=O)C(C)(C)C5CC[C@]43C)[C@@H]2C1 (stereo partly drawn) [Compound 1i]
IC50 [1]: 6.6 nM
IC50 ([2]; Rattus norvegicus): 4.6 nM

CC1(C)CC[C@]2(C(=O)O)CC[C@]3(COC(=O)/C=C/c4cc(O)ccc4NS(=O)(=O)O)C(=CCC4[C@@]5(C)CCC(=O)C(C)(C)C5CC[C@]43C)[C@@H]2C1 (stereo partly drawn) [Compound 1k]
IC50 [1]: 2.9 nM
IC50 ([2]; Rattus norvegicus): 2.8 nM

CC1(C)CC[C@]2(C(=O)O)CC[C@]3(COC(=O)/C=C/c4cc(O)ccc4NC(=O)CCC(=O)O)C(=CCC4[C@@]5(C)CCC(=O)C(C)(C)C5CC[C@]43C)[C@@H]2C1 (stereo partly drawn) [Compound 1e]
IC50 [1]: 3.6 nM
IC50 ([2]; Rattus norvegicus): 3.5 nM

COC(=O)/C=C/C(=O)Nc1ccc(O)cc1/C=C/C(=O)OC[C@@]12CC[C@@]3(C(=O)O)CCC(C)(C)C[C@H]3C1=CCC1[C@@]3(C)CCC(=O)C(C)(C)C3CC[C@]12C (stereo partly drawn) [Compound 1m]
IC50 [1]: 5 nM
IC50 ([2]; Rattus norvegicus): 2.7 nM
